# Earlier results in patent publication US12728116B2, “Methods of treating multiple sclerosis” (Vanda Pharmaceuticals Inc., priority 2021, dated 2026).
# Tested on: adult subjects with relapsing MS
# Conditions: comparison values given in brackets; cited from earlier work
row,SMILES,ECG HR effect: time of nadir post-dose (other S1P receptor modulators)
1,CCCCCCCCc1ccc(CCC(N)(CO)CO)cc1 [fingolimod],~6 h
2,CCc1cc(/C(C)=N/OCc2ccc(C3CCCCC3)c(C(F)(F)F)c2)ccc1CN1CC(C(=O)O)C1 [siponimod],3 to 4 h
